pKi: −log10 of the molar value.
Columns and labels:
Carbonic anhydrase 4 = Carbonic anhydrase 4 (Homo sapiens, UniProt P22748)
Carbonic anhydrase 3 = Carbonic anhydrase 3 (Homo sapiens, UniProt P07451)
[1] = target: Carbonic anhydrase 5A, mitochondrial (Homo sapiens, UniProt P35218)
Carbonic anhydrase 13 = Carbonic anhydrase 13 (Mus musculus, UniProt Q9D6N1)
Carbonic anhydrase 7 = Carbonic anhydrase 7 (Homo sapiens, UniProt P43166)
Carbonic anhydrase 14 = Carbonic anhydrase 14 (Homo sapiens, UniProt Q9ULX7)
Carbonic anhydrase 2 = Carbonic anhydrase 2 (Homo sapiens, UniProt P00918)
Carbonic anhydrase 6 = Carbonic anhydrase 6 (Homo sapiens, UniProt P23280)
Carbonic anhydrase 9 = Carbonic anhydrase 9 (Homo sapiens, UniProt Q16790)
[2] = target: Carbonic anhydrase 5B, mitochondrial (Homo sapiens, UniProt Q9Y2D0)
Sequence of Carbonic anhydrase 5B, mitochondrial (Q9Y2D0 whole entry): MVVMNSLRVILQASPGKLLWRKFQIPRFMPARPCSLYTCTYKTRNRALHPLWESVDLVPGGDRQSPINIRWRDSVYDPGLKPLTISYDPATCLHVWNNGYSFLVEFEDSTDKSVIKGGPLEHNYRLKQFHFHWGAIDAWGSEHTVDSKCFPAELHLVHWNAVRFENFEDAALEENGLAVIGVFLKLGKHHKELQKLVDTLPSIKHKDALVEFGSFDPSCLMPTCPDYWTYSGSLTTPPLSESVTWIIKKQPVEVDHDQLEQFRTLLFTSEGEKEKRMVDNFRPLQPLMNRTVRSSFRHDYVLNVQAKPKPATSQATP

Sequence of Carbonic anhydrase 3 (P07451 whole entry): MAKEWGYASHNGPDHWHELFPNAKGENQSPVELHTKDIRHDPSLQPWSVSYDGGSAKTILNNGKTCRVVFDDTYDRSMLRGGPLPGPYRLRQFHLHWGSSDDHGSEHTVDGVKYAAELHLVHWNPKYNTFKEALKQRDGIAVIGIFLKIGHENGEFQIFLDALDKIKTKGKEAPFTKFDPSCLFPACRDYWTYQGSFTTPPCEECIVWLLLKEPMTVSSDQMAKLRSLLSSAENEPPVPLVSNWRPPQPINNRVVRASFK
Sequence of Carbonic anhydrase 14 (Q9ULX7 whole entry): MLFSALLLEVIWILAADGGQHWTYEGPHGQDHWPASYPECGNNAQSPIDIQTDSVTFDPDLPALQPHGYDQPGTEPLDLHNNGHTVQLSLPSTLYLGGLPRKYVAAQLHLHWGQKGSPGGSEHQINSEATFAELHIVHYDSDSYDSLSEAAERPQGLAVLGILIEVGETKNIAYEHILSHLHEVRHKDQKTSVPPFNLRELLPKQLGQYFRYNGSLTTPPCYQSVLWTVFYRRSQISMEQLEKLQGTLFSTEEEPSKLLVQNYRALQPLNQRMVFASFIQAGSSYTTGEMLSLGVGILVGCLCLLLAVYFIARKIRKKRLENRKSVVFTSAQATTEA
Sequence of Carbonic anhydrase 4 (P22748 whole entry): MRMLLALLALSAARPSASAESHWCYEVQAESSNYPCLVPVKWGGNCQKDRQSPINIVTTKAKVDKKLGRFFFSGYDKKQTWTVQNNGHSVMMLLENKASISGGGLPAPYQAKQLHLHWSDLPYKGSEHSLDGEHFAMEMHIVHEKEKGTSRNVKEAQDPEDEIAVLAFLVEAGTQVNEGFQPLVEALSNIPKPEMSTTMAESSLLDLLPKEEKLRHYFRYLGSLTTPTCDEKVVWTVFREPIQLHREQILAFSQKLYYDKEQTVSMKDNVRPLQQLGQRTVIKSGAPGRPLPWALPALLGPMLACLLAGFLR
Sequence of Carbonic anhydrase 13 (Q9D6N1 whole entry): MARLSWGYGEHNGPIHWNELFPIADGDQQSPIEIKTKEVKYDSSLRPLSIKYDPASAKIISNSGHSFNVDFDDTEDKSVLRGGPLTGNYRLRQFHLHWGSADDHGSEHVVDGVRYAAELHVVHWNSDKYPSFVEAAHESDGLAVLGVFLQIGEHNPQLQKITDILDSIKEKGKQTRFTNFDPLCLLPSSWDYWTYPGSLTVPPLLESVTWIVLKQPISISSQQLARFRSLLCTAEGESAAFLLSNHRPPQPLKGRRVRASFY
Sequence of Carbonic anhydrase 6 (P23280 whole entry): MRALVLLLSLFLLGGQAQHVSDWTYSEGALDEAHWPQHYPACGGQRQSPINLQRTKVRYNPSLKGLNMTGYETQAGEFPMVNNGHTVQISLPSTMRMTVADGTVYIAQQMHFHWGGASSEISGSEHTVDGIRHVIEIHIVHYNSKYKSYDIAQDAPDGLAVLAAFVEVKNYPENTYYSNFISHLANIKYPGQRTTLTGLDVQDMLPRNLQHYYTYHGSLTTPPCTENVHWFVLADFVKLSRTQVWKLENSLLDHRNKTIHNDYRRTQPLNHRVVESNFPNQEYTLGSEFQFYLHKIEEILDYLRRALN
Sequence of Carbonic anhydrase 7 (P43166 whole entry): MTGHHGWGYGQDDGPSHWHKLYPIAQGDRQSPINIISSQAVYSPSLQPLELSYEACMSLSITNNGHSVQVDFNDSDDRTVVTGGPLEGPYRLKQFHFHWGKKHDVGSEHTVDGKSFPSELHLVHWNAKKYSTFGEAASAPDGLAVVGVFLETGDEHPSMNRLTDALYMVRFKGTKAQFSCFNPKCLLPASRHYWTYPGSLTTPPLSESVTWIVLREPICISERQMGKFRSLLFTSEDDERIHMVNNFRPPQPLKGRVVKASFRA
Sequence of Carbonic anhydrase 5A, mitochondrial (P35218 whole entry): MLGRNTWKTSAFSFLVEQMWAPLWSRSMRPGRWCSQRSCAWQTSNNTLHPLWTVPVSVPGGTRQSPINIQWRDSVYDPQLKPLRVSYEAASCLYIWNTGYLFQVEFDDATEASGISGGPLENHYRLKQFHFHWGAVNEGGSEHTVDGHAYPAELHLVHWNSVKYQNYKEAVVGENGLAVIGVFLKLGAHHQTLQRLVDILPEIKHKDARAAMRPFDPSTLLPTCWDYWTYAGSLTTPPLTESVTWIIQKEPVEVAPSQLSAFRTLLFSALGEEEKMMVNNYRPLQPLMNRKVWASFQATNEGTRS

SMILES	pKi (Carbonic anhydrase 4)	pKi (Carbonic anhydrase 3)	pKi [1]	pKi (Carbonic anhydrase 13)	pKi (Carbonic anhydrase 7)	pKi (Carbonic anhydrase 14)	pKi (Carbonic anhydrase 2)	pKi (Carbonic anhydrase 6)	pKi (Carbonic anhydrase 9)	pKi [2]
NS(=O)(=O)c1cc(C2(O)NC(=O)c3ccccc32)ccc1Cl (configuration not stated) [CHLORTHALIDONE]	6.71	4.96	6.04	7.82	8.55	5.38	6.86	5.87	7.64	8.05
NS(=O)(=O)c1cc(C(=O)O)c(NCc2ccco2)cc1Cl [FUROSEMIDE]	–	2.49	–	–	–	–	–	–	–	–
CC1Cc2ccccc2N1NC(=O)c1ccc(Cl)c(S(N)(=O)=O)c1 (configuration not stated) [INDAPAMIDE]	–	3.64	–	–	–	–	–	–	–	–
